In US11285169B2, “Methods for modulating chemotherapeutic cytotoxicity” (The United States of America, as represented by the …, priority 2013, dated 2022):

Assays:
wild type Jurkat cells = tested on: wild type Jurkat cells
Procedure: (§1) Wild type or CD47 null Jurkat T cells were plated at a density of 7×10^3/well in 96 well plates or 500 cells/well in 1536 well plates. Cells were treated with increasing amounts of doxorubicin. Cell viability was measured 48 or 72 hours after treatment by MTS reduction or using CellTiter-Glo® cell viability assay (Promega, Madison Wis.).
(§2) Wild type or CD47 null Jurkat cells were plated at a density of 7×10^3/well in 96 well plates. Cells were treated with 10 μg/ml 5-FU or […] camptothecin. Cell viability was measured 72 hours after treatment by MTS reduction.

CD47 null Jurkat cells = tested on: CD47 null Jurkat cells
Procedure: as §1, §2

[1] = tested on: Glut-1 glucose transporter; experiment: Glut-1 expression in tumors by western blot; type: in vivo, mouse; details: western blot of excised tumors
Procedure: Glucose uptake was measured 24 hours after treatment by adding 2-NBDG, which is a fluorescently labeled deoxyglucose analog that is used primarily to directly monitor glucose uptake by living cells. This confirmed that the combination treatment modified glucose metabolism to sensitize cells to Dox treatment (FIG. 10). Furthermore, blockade of CD47 in combination with dox decreased expression of the Glut-1 glucose transporter in vivo (FIG. 11). Tumors of mice were exised and protein expression was determined by western blot hybridization. Expression of Glut-1 was not affected by treatment with saline, doxorubicin or CD47 morpholino (CD47M) alone. […] Glut-1 facilitates the transport of glucose in cells and is a poor prognostic factor in breast cancer and other cancer types.

4T1 breast tumors = experiment: 4T1 breast cancer cells in mammary fat pad of Balb/c mice: tumor growth, weight, lung metastasis; type: in vivo, mouse; details: for tumor weight at end of study: excised tumors; for tumor growth (tumor volume): weekly treatment, followed for 30 days, Dox i.v., CD47 M i.p. 48 hours before
Procedure: Balb/c mice were injected with 5×10^3 4 T1 breast cancer cells in the mammary fat pad. Tumors were left untreated, treated with 100 μl of 10 μg/mL doxorubicin (Dox) or with 10 μg/mL Dox in combination with 10 μM CD47 Morpholino (CD47 M). Doxorubicin treatment was given intravenously weekly. Treatment with CD47 M was given intraperitoneally 48 hours prior to doxorubicin injection.
4T1B breast cancer cells were implanted in the mammary fat-pad of Balb/C mice. The mice were treated weekly with saline, doxorubicin, CD47 M, or the combination of CD47 M with doxorubicin. Tumor growth was measured using calipers and was followed for 30 days. Treatment with CD47 morpholino was done two days prior to each treatment with doxorubicin for four weeks.
Tumors were excised at the end of the study and weighed. Tumors of mice treated with saline tripled in size (FIG. 1B).
The 4T1 breast cancer model is a well known model for metastasis of orthotopic breast tumors to lung and other organs. Mice were injected in the mammary fat pad with 4T1 cells. CD47 morpholino was administered intraperitoneally at a dose of 10 μM per mouse. Doxorubicin was adminstered intravenously at a dose of 10 mg/kg. The CD47 morpholino was administered weekly and the Doxorubicin administration was done weekly 48 hours after CD47 treatment. Five mice per group were treated. Lungs were exised, paraffin embedded, and hematoxylin and eosin stain was used to determine tissue structure.

lung tissue = details: mouse, in vivo
Atg5 and Atg7 = experiment: Autophagy gene expression in hearts of WT and CD47 null mice; type: in vivo, mouse; details: 24 hours of treatment
Procedure: Samples were collected after 24 hours of treatment.
WT and CD47 null mice were treated with doxorubicin to determine effects on autophagy gene expression.

PINK and PARKIN = PINK and PARKIN gene expression by qRT-PCR in 4T1 cells; type: cell-based, mouse; details: single agents
Procedure: Autophagy can promote either survival or death of tissue. Selective mitochondrial turnover by mitophagy in tumor tissue can shift this pathway to a pro-death response (Gargini et al., Autophagy 7:466-476, 2011). To further understand the mechanism of mitophagy in breast cancer cells, 4T1 breast cancer cells were plated and treated with CD47 morpholino for 48 hours. […] Gene expression was determined by qRT-PCR.

4T1 breast cancer cells [2] = experiment: Oxygen consumption rate and extracellular acidification rate, XF24 analyzer, 4T1 cells; type: cell-based, mouse; details: for extracellular acidification rate (ECAR): 4T1B cells, same treatments as OCR; for oxygen consumption rate (OCR): 4T1 cells, CD47 morpholino 10 μM 48 hours, doxorubicin 10 μg/ml 1 hour
Procedure: (§3) 4T1 breast cancer cells or B16 melanoma cells (2×10^4 cells) were plated in the presence or absence of CD47 morpholino (10 μM). After a 48 hour period of incubation, cells were treated with doxorubicin for 1 hour (10 μg/ml). OCR and ECAR were measured using an XF24 analyzer (Seahorse Bioscience, N. Billerica, Mass.).
(§4) To start elucidating the molecular mechanism of breast cancer sensitization to anthracycline therapy with CD47 blockade oxygen consumption rate (OCR) was tested. OCR is a measurement of mitochondrial respiration and is extremely sensitive to changes in metabolic demand (Tao et al., Anal. Biochem. 381:43-52, 2008). Increased OCR is an indicator of mitochondrial dysfunction in transformed cells associated with tumor aggressiveness and resistance to therapy (Vaupel and Mayer, Int. J. Biochem. Cell Biol. 44:1477-1481, 2012). To measure OCR, 4T1 breast cancer cells or B16 melanoma cells were plated in 24-well plates using the XF24 flux analyzer (Seahorse Bioscience). Cells were exposed to known mitochondrial poisons (oligomicin, carbonilcyanide p-triflouromethoxy-phenylhydrazone FCCP, or […]) to determine basal and maximal OCR.
It is well known that cancer cells show increased glycolytic flux. […] The extracellular acidification rate (ECAR) was measured in 4T1B cells using the XF24 flux analyzer following the same treatments stated above.

PINK = PINK immunostaining of tumor and heart sections; type: in vivo, mouse; details: heart
Procedure: Briefly, slides were deparaffinized in xylene and rehydrated in graded alcohol. Antigen retrieval was performed using microwave antigen retrieval method with Target Retrieval Solution, pH 6.1 (Dako, Carpinteria, Calif.). […] Slides were incubated with respective antibodies. Sections were treated with streptavidin-biotin and DAB (3,3-diaminobenzidine) was used as chromogen. Hematoxylin was used for counterstaining. The intensity of the staining was evaluated under light microscopy.
Tissue sections from the initial tumor model were immune-stained for PINK.

4T1 breast cancer cells [3] = experiment: Cell viability by MTS reduction, 4T1 cells with or without CD47 morpholino; type: cell-based, mouse; details: 10 μM CD47 morpholino 48 hours, doxorubicin 72 hours
Procedure: Cells were plated in the presence or absence of 10 μM CD47 morpholino. After 48 hours, cells were treated with the indicated amounts of doxorubicin (10 μg/ml in FIGS. 7B and C). Cell viability was measured 72 hours after treatment by MTS reduction (FIGS. 7A and D) or 24 hours after treatment by lactate dehydrogenase (LDH) release (FIGS. 7B and C). * p<0.001. Control cells were untreated and Endoporter indicates treatment with vehicle without morpholino in FIGS. 7B and C.
4T1 breast cancer cells were treated with CD47 morpholino and treated with increasing concentrations of doxorubicin.

B16 melanoma cells = experiment: Oxygen consumption rate, XF24 analyzer, B16 cells; type: cell-based, mouse; details: CD47 morpholino 10 μM 48 hours, doxorubicin 10 μg/ml 1 hour
Procedure: as §3, §4

cardiac tissue = details: mouse, in vivo
Text: Hearts were collected from mice at the end of the tumor studies after four rounds of weekly doxorubicin treatment in the presence or absence of CD47 blockade. Sections were paraffin embedded and stained with H&E to determine tissue histology.
Tissue sections were subjected to TUNEL staining to detect cell death.

CD47 = experiment: Western blot of CD47 protein in tumors; type: in vivo, mouse; details: 48 hours after treatment

| Compound | cytotoxicity (wild type Jurkat cells; human) [%] | cytotoxicity (CD47 null Jurkat cells; human) [%] | Glut-1 expression in tumors [1] | tumor weight at end of study (4T1 breast tumors) | tumor growth (tumor volume) (4T1 breast tumors) | lung tissue condition / fibrosis (lung tissue) | Atg5 and Atg7 mRNA levels in hearts (Atg5 and Atg7; CD47 null mice) | Atg5 mRNA level in hearts (Atg5 and Atg7; WT mice) | PINK and PARKIN gene expression (in words) (PINK and PARKIN) | extracellular acidification rate (ECAR) (4T1 breast cancer cells [2]) | oxygen consumption rate (OCR) (4T1 breast cancer cells [2]) | PINK expression in hearts (PINK) | cell viability (wild type Jurkat cells; WT Jurkat T cells, increasing concentration of doxorubicin, 72 hours) | cell viability (CD47 null Jurkat cells; CD47 deficient Jurkat T cells, increasing concentration of doxorubicin, 72 hours) | cell viability (4T1 breast cancer cells [3]) | oxygen consumption rate (OCR) (B16 melanoma cells) | cardiac tissue histology (H&E) (cardiac tissue) | cell death in cardiac tissue (TUNEL staining) (cardiac tissue) | CD47 protein in tumors (CD47) |
| --- | --- | --- | --- | --- | --- | --- | --- | --- | --- | --- | --- | --- | --- | --- | --- | --- | --- | --- | --- |
| CC[C@@]1(O)C(=O)OCc2c1cc1n(c2=O)Cc2cc3ccccc3nc2-1 [Camptothecin] | 79 | 56 | – | – | – | – | – | – | – | – | – | – | – | – | – | – | – | – | – |
| COc1cccc2c1C(=O)c1c(O)c3c(c(O)c1C2=O)C[C@@](O)(C(=O)CO)C[C@@H]3O[C@H]1C[C@H](N)[C@H](O)[C@H](C)O1 [Doxorubicin] | – | – | not affected | reduction in tumor weight | slightly delayed tumor growth | less fibrosis | markedly increased | slight reduction of Atg5 | minimal effects | high acidification in the media | showed the same pattern | No change in PINK expression | decreased viability | dose-dependent protection | reduction in cell viability | showed the same pattern | characteristic degeneration of cardiac muscle | high TUNEL positive staining | – |
| CD47 morpholino: antisense morpholino oligonucleotide complementary to human and murine CD47, CGTCACAGGCAGGACCCACTGCCCA (SEQ ID NO: 3) (all phosphorodiamidate morpholino (PMO)) | – | – | not affected | reduction in tumor weight | slightly delayed tumor growth | – | – | – | minimal effects | slight decrease in the ECAR | caused a reduction in OCR | – | – | – | – | caused a reduction in OCR | – | – | decrease in CD47 protein |
